Laboratory results from ChEMBL document CHEMBL1149353, “Exploring alternative Zn-binding groups in the design of HDAC inhibitors: squaric acid, N-hydroxyurea, and oxazoline analogues of SAHA” (Bioorg Med Chem Lett, 2006).
Calls of active or inactive are those of the source. The calls are words filed in the database; no cut-off is given here.

Target: Histone deacetylase (Homo sapiens) (UniProt Q13547+O15379+Q9UBN7+Q92769+Q9UQL6+Q8WUI4+Q9BY41+Q96DB2+P56524+Q9UKV0+Q969S8)
Test: Inhibition of HDAC at <1 uM
Type: protein assay

Structure (SMILES) | Activity
CSc1c(NCCCCC(=O)Nc2ccccc2)c(=O)c1=O | inactive
O=C(CCCC/N=c1/c(S)c(O)c1=O)Nc1ccccc1 | inactive
O=C(CCCCNc1c(O)c(=O)c1=O)Nc1ccccc1 | inactive
O=C(CCCCCCC1=N[C@@H](COCc2ccccc2)CO1)Nc1ccccc1 | inactive
O=C(CCCCC/N=c1/c(S)c(O)c1=O)Nc1ccccc1 | inactive
O=C(CCCCCCC1=N[C@@H](CO)CO1)Nc1ccccc1 | inactive
CN(O)c1c(SCCCCC(=O)Nc2ccccc2)c(=O)c1=O | inactive
COc1ccc(COC(CCCCCNC(=O)NO)C(=O)Nc2ccccc2)cc1 (stereo not drawn) | inactive
O=C(CCCCCC/N=c1/c(S)c(O)c1=O)Nc1ccccc1 | inactive
CSc1c(NCCCCCC(=O)Nc2ccccc2)c(=O)c1=O | inactive
CSc1c(NCCCCCCC(=O)Nc2ccccc2)c(=O)c1=O | inactive
O=C(CCCCCCNc1c(O)c(=O)c1=O)Nc1ccccc1 | inactive
O=C(CCCCCNc1c(O)c(=O)c1=O)Nc1ccccc1 | inactive
